Data: ChEMBL document CHEMBL4507328, “Data for DCP probe BAY-390” (2021)
Calls of active or inactive are those of the source. The calls are words filed in the database; no cut-off is given here.

Key:
[1] = target: Alpha-2B adrenergic receptor (Homo sapiens) (UniProt P18089); settings: Compound concentration 10.0 uM
[2] = target: Histamine H3 receptor (Homo sapiens) (UniProt Q9Y5N1); settings: Compound concentration 10.0 uM
[3] = target: B2 bradykinin receptor (Homo sapiens) (UniProt P30411); settings: Compound concentration 10.0 uM
[4] = target: Adenosine Transporter (Cavia porcellus) (UniProt H0V4R7+H0UUG1+H0V3Z5); test: Inhibition of Transporter, Adenosine at compound concentration of 10.0 uM in the Eurofins-Panlabs radioligand binding assay (Eurofins_assay_202000); format: protein assay; set-up: ligand concentration 0.5 nM, non-specific ligand with concentration 5 uM Nitrobenzylthioinosine, incubation time 30 min, incubation temperature 25 C; settings: Compound concentration 10.0 uM
[5] = target: Adenosine receptor A2a (Homo sapiens) (UniProt P29274); settings: Compound concentration 10.0 uM
Adenosine receptor A2a (Homo sapiens), sequence (P29274 whole entry): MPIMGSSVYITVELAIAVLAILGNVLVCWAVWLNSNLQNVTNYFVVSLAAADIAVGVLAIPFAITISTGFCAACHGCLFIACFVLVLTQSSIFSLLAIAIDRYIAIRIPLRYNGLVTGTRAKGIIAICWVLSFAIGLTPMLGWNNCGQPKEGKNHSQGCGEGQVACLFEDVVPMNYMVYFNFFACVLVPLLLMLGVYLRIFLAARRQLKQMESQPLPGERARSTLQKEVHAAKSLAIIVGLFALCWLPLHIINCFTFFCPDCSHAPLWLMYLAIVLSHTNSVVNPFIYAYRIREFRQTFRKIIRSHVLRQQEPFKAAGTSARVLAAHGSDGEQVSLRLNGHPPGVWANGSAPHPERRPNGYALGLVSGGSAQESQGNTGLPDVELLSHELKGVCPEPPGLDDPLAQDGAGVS

[6] = target: Glucocorticoid receptor (Homo sapiens) (UniProt P04150); settings: Compound concentration 10.0 uM
Progesterone receptor = Progesterone receptor (Homo sapiens, UniProt P06401); test: Inhibition of Progesterone PR-B at compound concentration of 10.0 uM in the Eurofins-Panlabs radioligand binding assay (Eurofins_assay_299005); set-up: ligand concentration 0.5 nM, non-specific ligand with concentration 1 uM R5020, incubation time 20 h, incubation temperature 4 C
Progesterone receptor, sequence (P06401 whole entry): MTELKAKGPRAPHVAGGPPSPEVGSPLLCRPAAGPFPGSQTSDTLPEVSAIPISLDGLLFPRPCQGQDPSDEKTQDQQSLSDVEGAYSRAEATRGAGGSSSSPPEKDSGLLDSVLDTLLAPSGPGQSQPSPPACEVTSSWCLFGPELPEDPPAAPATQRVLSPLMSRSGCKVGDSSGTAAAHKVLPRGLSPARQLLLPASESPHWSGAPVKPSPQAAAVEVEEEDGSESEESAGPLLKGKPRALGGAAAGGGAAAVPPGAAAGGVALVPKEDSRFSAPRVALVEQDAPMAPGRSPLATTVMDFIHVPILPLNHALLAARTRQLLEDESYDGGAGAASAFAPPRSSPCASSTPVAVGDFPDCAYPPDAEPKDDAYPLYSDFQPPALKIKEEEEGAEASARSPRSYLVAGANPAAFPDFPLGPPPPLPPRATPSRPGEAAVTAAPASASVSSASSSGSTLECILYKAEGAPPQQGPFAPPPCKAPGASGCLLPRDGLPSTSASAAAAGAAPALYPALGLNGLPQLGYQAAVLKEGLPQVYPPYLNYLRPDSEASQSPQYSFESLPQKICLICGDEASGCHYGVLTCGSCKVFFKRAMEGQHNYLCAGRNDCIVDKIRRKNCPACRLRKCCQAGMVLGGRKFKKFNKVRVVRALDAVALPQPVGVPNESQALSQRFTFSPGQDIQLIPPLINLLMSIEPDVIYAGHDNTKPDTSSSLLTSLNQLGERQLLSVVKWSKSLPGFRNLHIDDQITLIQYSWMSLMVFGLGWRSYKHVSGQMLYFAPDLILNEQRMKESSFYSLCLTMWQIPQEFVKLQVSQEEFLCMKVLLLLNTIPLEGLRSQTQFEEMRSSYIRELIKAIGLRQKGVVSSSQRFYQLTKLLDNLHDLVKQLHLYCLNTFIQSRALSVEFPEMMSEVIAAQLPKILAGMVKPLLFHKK

[7] = target: Sodium-dependent noradrenaline transporter (Homo sapiens) (UniProt P23975); settings: Compound concentration 10.0 uM
[8] = target: Adenosine receptor A1 (Homo sapiens) (UniProt P30542); settings: Compound concentration 10.0 uM
[9] = target: Androgen receptor (Homo sapiens) (UniProt P10275); settings: Compound concentration 10.0 uM
Androgen receptor (Homo sapiens), sequence (P10275 whole entry): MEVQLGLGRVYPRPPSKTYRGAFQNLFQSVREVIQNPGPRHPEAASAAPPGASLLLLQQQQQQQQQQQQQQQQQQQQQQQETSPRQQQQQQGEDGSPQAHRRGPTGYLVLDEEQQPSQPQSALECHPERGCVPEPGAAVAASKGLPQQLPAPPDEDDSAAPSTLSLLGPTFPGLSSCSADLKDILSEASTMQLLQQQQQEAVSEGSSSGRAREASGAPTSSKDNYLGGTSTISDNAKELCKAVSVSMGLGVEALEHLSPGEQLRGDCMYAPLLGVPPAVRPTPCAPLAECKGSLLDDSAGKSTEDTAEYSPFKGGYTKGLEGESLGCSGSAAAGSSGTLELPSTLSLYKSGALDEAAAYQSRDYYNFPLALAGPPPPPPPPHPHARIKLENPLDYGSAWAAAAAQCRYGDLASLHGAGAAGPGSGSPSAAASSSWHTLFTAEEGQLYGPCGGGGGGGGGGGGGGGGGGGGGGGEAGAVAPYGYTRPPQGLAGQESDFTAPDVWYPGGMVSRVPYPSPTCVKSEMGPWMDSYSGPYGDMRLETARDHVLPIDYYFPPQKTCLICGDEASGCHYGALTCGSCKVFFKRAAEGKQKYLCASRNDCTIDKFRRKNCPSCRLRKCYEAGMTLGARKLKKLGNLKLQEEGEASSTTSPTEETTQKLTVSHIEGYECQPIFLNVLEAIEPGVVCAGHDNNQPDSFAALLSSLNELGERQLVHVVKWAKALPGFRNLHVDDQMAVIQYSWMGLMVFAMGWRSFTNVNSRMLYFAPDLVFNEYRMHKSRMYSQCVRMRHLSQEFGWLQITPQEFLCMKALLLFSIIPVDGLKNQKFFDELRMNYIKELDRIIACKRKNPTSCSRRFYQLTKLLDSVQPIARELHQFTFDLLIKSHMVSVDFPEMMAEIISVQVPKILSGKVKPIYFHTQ

[10] = target: Transient receptor potential cation channel subfamily A member 1 (Homo sapiens, UniProt O75762); test: Ephys (human TRPA1)
Oryctolagus cuniculus = species on record: Oryctolagus cuniculus; test: Inhibition of Purinergic P2X at 10 µM in the Eurofins-Panlabs radioligand binding assay (Eurofins_assay_268700); format: protein assay; settings: Compound concentration 10.0 uM
[11] = target: Estrogen receptor (Homo sapiens) (UniProt P03372); settings: Compound concentration 10.0 uM
[12] = target: Insulin receptor (Homo sapiens) (UniProt P06213); settings: Rattus norvegicus; Compound concentration 10.0 uM
[13] = target: Short transient receptor potential channel 3 (Homo sapiens, UniProt Q13507); test: TRP selectivity screen (TRPC3)
[14] = target: Progesterone receptor (Homo sapiens) (UniProt P06401); settings: Compound concentration 10.0 uM
Progesterone receptor (Homo sapiens), sequence (P06401 whole entry): as the sequence (P06401 whole entry) above

[15] = target: Sodium-dependent dopamine transporter (Homo sapiens, UniProt Q01959); test: GPCRScan assay: inhibition of DAT; set-up: radioligand conc. used [nm] 3.6 – 16.0, parental cells stable HEK
Sodium-dependent dopamine transporter, sequence (Q01959 whole entry): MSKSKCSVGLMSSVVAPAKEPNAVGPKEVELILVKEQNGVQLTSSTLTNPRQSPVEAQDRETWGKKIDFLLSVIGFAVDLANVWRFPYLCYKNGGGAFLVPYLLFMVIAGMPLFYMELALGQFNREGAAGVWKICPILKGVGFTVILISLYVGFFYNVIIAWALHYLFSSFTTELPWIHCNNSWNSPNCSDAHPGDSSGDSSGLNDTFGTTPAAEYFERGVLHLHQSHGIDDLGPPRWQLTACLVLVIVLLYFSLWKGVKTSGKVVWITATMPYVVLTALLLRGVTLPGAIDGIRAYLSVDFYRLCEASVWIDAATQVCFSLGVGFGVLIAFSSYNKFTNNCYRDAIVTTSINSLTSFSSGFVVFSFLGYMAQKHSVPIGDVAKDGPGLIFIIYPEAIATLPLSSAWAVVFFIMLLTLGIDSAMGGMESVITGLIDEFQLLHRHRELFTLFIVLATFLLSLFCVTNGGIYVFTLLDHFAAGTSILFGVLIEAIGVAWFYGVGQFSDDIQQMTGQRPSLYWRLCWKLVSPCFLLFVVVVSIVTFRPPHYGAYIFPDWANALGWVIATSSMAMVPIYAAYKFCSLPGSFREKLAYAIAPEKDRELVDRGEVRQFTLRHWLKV

[16] = target: 5-hydroxytryptamine receptor 1B (Homo sapiens) (UniProt P28222); settings: Compound concentration 10.0 uM
[17] = target: Beta-2 adrenergic receptor (Homo sapiens) (UniProt P07550); settings: Compound concentration 10.0 uM
Beta-2 adrenergic receptor (Homo sapiens), sequence (P07550 whole entry, looked up): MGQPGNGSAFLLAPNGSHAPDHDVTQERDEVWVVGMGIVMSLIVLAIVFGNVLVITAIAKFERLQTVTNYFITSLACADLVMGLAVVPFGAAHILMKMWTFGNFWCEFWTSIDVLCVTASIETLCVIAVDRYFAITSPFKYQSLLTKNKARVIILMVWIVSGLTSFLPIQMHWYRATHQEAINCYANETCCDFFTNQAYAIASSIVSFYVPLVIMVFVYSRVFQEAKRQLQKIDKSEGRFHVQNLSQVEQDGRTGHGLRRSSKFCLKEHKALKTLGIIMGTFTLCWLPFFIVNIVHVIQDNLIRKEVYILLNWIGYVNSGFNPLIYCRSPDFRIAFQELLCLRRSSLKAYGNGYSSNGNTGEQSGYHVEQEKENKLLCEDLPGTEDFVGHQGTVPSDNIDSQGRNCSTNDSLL

[18] = target: Alpha-2B adrenergic receptor (Homo sapiens) (UniProt P18089); settings: Compound concentration 10.0 uM; remark: listed apart in the source
[19] = target: Beta-3 adrenergic receptor (Homo sapiens) (UniProt P13945); settings: Compound concentration 10.0 uM
[20] = target: D(3) dopamine receptor (Homo sapiens) (UniProt P35462); settings: Compound concentration 10.0 uM
[21] = target: D(1B) dopamine receptor (Homo sapiens) (UniProt P21918); settings: Compound concentration 10.0 uM
[22] = target: Type-2 angiotensin II receptor (Homo sapiens) (UniProt P50052); settings: Compound concentration 10.0 uM
Type-2 angiotensin II receptor (Homo sapiens), sequence (P50052 whole entry): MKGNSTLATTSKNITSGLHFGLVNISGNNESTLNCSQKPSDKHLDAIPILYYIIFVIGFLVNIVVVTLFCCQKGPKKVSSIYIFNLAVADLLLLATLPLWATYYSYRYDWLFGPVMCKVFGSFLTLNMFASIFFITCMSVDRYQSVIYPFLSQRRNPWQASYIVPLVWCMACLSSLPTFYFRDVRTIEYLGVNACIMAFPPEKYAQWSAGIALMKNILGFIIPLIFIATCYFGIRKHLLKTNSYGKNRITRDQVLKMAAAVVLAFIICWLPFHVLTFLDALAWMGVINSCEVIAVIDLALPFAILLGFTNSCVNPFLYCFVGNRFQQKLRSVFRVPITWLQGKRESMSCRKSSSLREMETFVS

[23] = target: Glutamate receptor 2 (Homo sapiens) (UniProt P42262); settings: Rattus norvegicus; Compound concentration 10.0 uM
Homo sapiens = species on record: Homo sapiens; test: Inhibition of Nicotinic Acetylcholine at compound concentration of 10.0 uM in the Eurofins-Panlabs radioligand binding assay (Eurofins_assay_258590); format: protein-complex assay; settings: Compound concentration 10.0 uM
[24] = target: Delta-type opioid receptor (Homo sapiens) (UniProt P41143); settings: Compound concentration 10.0 uM
[25] = target: 5-hydroxytryptamine receptor 2A (Homo sapiens, UniProt P28223); settings: Compound concentration 10.0 uM
[26] = target: Histamine H3 receptor (Homo sapiens) (UniProt Q9Y5N1); settings: Compound concentration 10.0 uM; remark: listed apart in the source
[27] = target: T1, Alpha-1A adrenergic receptor (Homo sapiens) (UniProt P35348); settings: Rattus norvegicus; Compound concentration 10.0 uM
T1 sequence (whole entry): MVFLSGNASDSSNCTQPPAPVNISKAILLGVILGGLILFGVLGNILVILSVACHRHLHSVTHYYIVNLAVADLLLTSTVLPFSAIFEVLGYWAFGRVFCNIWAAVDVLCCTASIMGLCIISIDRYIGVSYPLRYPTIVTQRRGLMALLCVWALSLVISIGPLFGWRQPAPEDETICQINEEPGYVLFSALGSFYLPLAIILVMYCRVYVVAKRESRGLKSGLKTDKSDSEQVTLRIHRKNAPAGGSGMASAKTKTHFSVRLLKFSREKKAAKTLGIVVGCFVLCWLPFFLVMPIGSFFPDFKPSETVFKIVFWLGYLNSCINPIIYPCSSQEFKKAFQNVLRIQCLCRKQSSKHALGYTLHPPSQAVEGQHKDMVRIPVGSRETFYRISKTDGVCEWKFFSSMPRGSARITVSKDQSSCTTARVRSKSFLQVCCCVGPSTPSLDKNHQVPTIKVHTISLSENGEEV

[28] = target: Mu-type opioid receptor (Homo sapiens) (UniProt P35372); settings: Compound concentration 10.0 uM
Mu-type opioid receptor (Homo sapiens), sequence (P35372 whole entry): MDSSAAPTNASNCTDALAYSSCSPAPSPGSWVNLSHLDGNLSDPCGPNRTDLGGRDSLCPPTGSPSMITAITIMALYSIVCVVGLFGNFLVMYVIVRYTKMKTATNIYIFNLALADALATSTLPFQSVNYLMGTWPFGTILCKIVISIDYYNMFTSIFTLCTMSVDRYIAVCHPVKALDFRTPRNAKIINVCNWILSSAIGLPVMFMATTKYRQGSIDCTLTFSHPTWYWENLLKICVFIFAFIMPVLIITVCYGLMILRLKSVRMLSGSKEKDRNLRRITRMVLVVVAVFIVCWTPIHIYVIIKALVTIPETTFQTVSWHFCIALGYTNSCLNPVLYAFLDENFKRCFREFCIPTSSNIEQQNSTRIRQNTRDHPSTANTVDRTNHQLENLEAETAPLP

[29] = target: Transient receptor potential cation channel subfamily A member 1 (Mus musculus, UniProt Q8BLA8); test: FLIPR Ca2+ assay (mouse TRPA1)
[30] = target: Histamine H4 receptor (Homo sapiens) (UniProt Q9H3N8); settings: Compound concentration 10.0 uM
[31] = target: Type-1 angiotensin II receptor (Homo sapiens) (UniProt P30556); settings: Compound concentration 10.0 uM

Alpha-2B adrenergic receptor (Homo sapiens), sequence (P18089 whole entry): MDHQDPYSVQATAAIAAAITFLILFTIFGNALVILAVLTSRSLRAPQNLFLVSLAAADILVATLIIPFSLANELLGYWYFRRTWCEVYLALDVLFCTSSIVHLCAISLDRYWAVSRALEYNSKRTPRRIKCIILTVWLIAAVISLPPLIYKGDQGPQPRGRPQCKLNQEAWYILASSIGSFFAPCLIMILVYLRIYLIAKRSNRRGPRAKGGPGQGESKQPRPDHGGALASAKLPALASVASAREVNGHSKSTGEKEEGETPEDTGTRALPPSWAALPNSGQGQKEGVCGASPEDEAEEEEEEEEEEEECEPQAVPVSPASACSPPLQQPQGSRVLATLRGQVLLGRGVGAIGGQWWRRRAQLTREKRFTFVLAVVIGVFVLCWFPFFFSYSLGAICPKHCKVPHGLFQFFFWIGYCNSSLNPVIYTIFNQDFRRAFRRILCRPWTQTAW
Histamine H3 receptor (Homo sapiens), sequence (Q9Y5N1 whole entry): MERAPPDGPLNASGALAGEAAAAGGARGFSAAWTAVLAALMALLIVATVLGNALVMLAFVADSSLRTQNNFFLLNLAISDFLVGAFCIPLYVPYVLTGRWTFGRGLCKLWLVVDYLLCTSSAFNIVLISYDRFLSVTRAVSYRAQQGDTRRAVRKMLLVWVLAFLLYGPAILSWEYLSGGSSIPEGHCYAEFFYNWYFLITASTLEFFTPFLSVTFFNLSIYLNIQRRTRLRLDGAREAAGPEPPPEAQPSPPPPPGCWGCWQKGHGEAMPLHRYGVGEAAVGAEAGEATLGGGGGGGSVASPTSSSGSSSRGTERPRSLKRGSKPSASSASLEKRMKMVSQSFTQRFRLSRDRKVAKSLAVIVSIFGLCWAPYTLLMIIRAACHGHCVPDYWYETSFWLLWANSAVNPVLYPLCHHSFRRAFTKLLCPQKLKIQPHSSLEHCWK

COc1cc(N[C@@H]2CCCC[C@]2(O)C(F)(F)F)ccc1F [BAY-9897] was tested, and the inhibition [1] was -0.18% and the inhibition [2] was -2.34%.
Compound O[C@]1(C(F)(F)F)CCCC[C@H]1Nc1ccc(F)cc1 [BAY-390] has an inhibition [3] of 4%, an inhibition [4] of -2% and an inhibition [5] of 3%. It also gave an inhibition [6] of 4%, an IC50 (Progesterone receptor) of 5000 nM and a Ki (Progesterone receptor) of 4000 nM. It also gave an inhibition [7] of 0.78%, an inhibition [8] of 18% and an inhibition [9] of 47%. The IC50 [10] was 82 nM (active), the inhibition (Oryctolagus cuniculus) was 3% and the inhibition [11] was 75%. The inhibition [12] was 8%, the IC50 [13] was > 25000 nM (not active) and the inhibition [14] was 65%. The Ki ([15]; read-out: Ki) was 1380 nM, the Ki ([15]; read-out: pKi (converted)) was 1350 nM and the inhibition [16] was -3.12%. It also gave an inhibition [17] of 11%, an inhibition [18] of 2% and an inhibition [19] of 1%. For the same compound, the inhibition [20] was 9%, the inhibition [21] was 30.2% and the inhibition [22] was 1%. The inhibition [23] was 8%, the inhibition (Homo sapiens) was -7% and the inhibition [24] was -6%. It also gave an inhibition [25] of -2%, an inhibition [26] of -4% and an inhibition [27] of 18%. For the same compound, the inhibition [28] was 5%, the IC50 [29] was 73 nM (active) and the inhibition [30] was 15.6%. It also gave an inhibition [31] of 4%.
